Some test systems named below: CAKI-1 renal; DU-145 prostate; EKVX NSCLC; HOP-92 NSCLC; LOX IMVI melanoma; M14 melanoma; MCF7 breast; SK-MEL-28 melanoma; SNB-19 CNS; T-47D breast.
What all share (assay): NCI tumour cell line growth inhibition, 48 h

The record followed here is PubChem BioAssay (NCI).

Several values for one entry are separate records, joined by “and”; a condition that tells them apart may be missing. Equal values may be shown once.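 Each compound was tested at five concentrations against cells in 96-well plates for 48 hours. Abbreviation: GI50, concentration required for 50% inhibition of growth. The concentration for full growth arrest is given as TGI.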

For the molecule `Nc1nc(N)c2nc(CNc3ccc(C(=O)NC(CCC(=O)O)C(=O)O)cc3)cnc2n1` (stereo not given), the GI50 in the assay with CAKI-1 renal was less than 0.01 µM; in the assay with DU-145 prostate, less than 0.01 µM; in the assay on EKVX NSCLC it was 4.69 µM; with HOP-92 NSCLC, greater than 100 µM; in the assay with LOX IMVI melanoma it was less than 0.01 µM; with M14 melanoma it was less than 0.01 µM. For the same molecule, the GI50 was 0.0101 µM and < 0.01 µM in the assay on MCF7 breast; 0.941 µM in the assay on SK-MEL-28 melanoma; 0.0634 µM and 0.0656 µM in the assay with SNB-19 CNS; 0.316 µM and 1.37 µM in the assay on T-47D breast. Moreover, the TGI in the assay with CAKI-1 renal, in the assay with DU-145 prostate, in the assay with EKVX NSCLC, in the assay on HOP-92 NSCLC, in the assay with LOX IMVI melanoma and in the assay with M14 melanoma was greater than 100 µM throughout. For the same molecule, the TGI with MCF7 breast, in the assay on SK-MEL-28 melanoma, with SNB-19 CNS and with T-47D breast was greater than 100 µM in each case.
As for `Nc1nc(-c2ccccn2)c(-c2ccc3ncccc3n2)s1`, the GI50 was greater than 25 µM in the assay with CAKI-1 renal; greater than 25 µM with DU-145 prostate; greater than 25 µM in the assay on EKVX NSCLC; 13.3 µM in the assay with HOP-92 NSCLC; greater than 25 µM in the assay on LOX IMVI melanoma; greater than 25 µM in the assay on M14 melanoma. The GI50 with MCF7 breast, in the assay with SK-MEL-28 melanoma, with SNB-19 CNS and in the assay with T-47D breast was greater than 25 µM in each case. Moreover, the TGI with CAKI-1 renal, with DU-145 prostate, in the assay with EKVX NSCLC, in the assay with HOP-92 NSCLC, in the assay on LOX IMVI melanoma and in the assay on M14 melanoma was greater than 25 µM throughout. Further, the TGI in the assay on MCF7 breast, in the assay with SK-MEL-28 melanoma, with SNB-19 CNS and in the assay with T-47D breast was greater than 25 µM in each case.
